Source: ChEMBL document CHEMBL4308841, “Synthesis, in vitro antiproliferative activity, and kinase inhibitory effects of pyrazole-containing diarylureas and diarylamides” (Eur J Med Chem, 2018)

Experiments:
HCT-15 = experiment: Growth inhibition of human HCT15 cells incubated for 48 hrs by sulforhodamine B assay; format: functional, cell-based; conditions: HCT-15, 48 h
RAW264.7 = experiment: Cytotoxicity against mouse RAW264.7 cells by MTT assay; format: cell-based
[1] = target: RAC-alpha serine/threonine-protein kinase (Homo sapiens) (UniProt P31749); experiment: Inhibition of human AKT1 at 10 uM using KGSGSGRPRTSSFAEG as substrate after 40 mins in presence of [gamma33P]ATP by scintillation counting method relative to control
[2] = target: Hepatocyte growth factor receptor (Homo sapiens) (UniProt P08581); experiment: Inhibition of human c-MET at 10 uM using KKKSPGEYVNIEFG as substrate after 40 mins in presence of [gamma33P]ATP by scintillation counting method relative to control
[3] = target: Mitogen-activated protein kinase 1 (Homo sapiens) (UniProt P28482); experiment: Inhibition of human ERK2 at 10 uM using myelin basic protein as substrate after 40 mins in presence of [gamma33P]ATP by scintillation counting method relative to control
[4] = target: Receptor-type tyrosine-protein kinase FLT3 (Homo sapiens) (UniProt P36888); experiment: Inhibition of human FLT3 at 10 uM using EAIYAAPFAKKK as substrate after 40 mins in presence of [gamma33P]ATP by scintillation counting method relative to control
[5] = target: Tyrosine-protein kinase JAK2 (Homo sapiens) (UniProt O60674); experiment: Inhibition of human JAK2 at 10 uM using poly[Glu:Tyr] (4:1) as substrate after 40 mins in presence of [gamma33P]ATP by scintillation counting method relative to control
[6] = target: Mitogen-activated protein kinase 8 (Homo sapiens) (UniProt P45983); experiment: Inhibition of human JNK1 at 10 uM using ATF2 as substrate after 40 mins in presence of [gamma33P]ATP by scintillation counting method relative to control
[7] = target: Vascular endothelial growth factor receptor 2 (Homo sapiens) (UniProt P35968); experiment: Inhibition of human VEGFR2 at 10 uM using poly[Glu:Tyr] (4:1) as substrate after 40 mins in presence of [gamma33P]ATP by scintillation counting method relative to control
[8] = target: Dual specificity mitogen-activated protein kinase kinase 1 (Homo sapiens) (UniProt Q02750); experiment: Inhibition of human MEK1 at 10 uM using ERK2 (K52R) as substrate after 40 mins in presence of [gamma33P]ATP by scintillation counting method relative to control
[9] = target: Mitogen-activated protein kinase 14 (Homo sapiens) (UniProt Q16539); experiment: Inhibition of human p38alpha at 10 uM using myelin basic protein as substrate after 40 mins in presence of [gamma33P]ATP by scintillation counting method relative to control
[10] = system: Serine/threonine-protein kinase B-raf (Homo sapiens), P15056 [V600E]; experiment: Inhibition of human BRAF V600E mutant at 10 uM using MEK1 (K97R) as substrate after 40 mins in presence of [gamma33P]ATP by scintillation counting method relative to control
RPMI-8226 = experiment: Induction of apoptosis in human RPMI8226 cells assessed as increase in caspase 3/7 level at 10 uM relative to control; format: functional
SK-MEL-5 = experiment: Growth inhibition of human SK-MEL-5 cells assessed as cell growth at 0.01 uM incubated for 48 hrs by sulforhodamine B assay relative to control; format: functional; conditions: SK-MEL-5, 48 h, read-out: Activity
CAKI-1 = experiment: Growth inhibition of human Caki1 cells assessed as cell growth at 0.01 uM incubated for 48 hrs by sulforhodamine B assay relative to control; format: functional; conditions: CAKI-1, 48 h, read-out: Activity
SF-268 = experiment: Growth inhibition of human SF268 cells assessed as cell growth at 0.1 uM incubated for 48 hrs by sulforhodamine B assay relative to control; format: functional; conditions: SF-268, 48 h, read-out: Activity
K562 = experiment: Growth inhibition of human K562 cells assessed as cell growth at 1 uM incubated for 48 hrs by sulforhodamine B assay relative to control; format: functional; conditions: K562, 48 h, read-out: Activity
HOP-92 = experiment: Growth inhibition of human HOP92 cells assessed as cell growth at 1 uM incubated for 48 hrs by sulforhodamine B assay relative to control; format: functional; conditions: HOP-92, 48 h, read-out: Activity
SF-539 = experiment: Growth inhibition of human SF539 cells assessed as cell growth at 1 uM incubated for 48 hrs by sulforhodamine B assay relative to control; format: functional; conditions: SF-539, 48 h, read-out: Activity
TK-10 [11] = experiment: Growth inhibition of human TK10 cells assessed as cell growth at 1 uM incubated for 48 hrs by sulforhodamine B assay relative to control; format: functional; conditions: TK-10, 48 h, read-out: Activity
T47D = experiment: Growth inhibition of human T47D cells assessed as cell growth at 1 uM incubated for 48 hrs by sulforhodamine B assay relative to control; format: functional; conditions: read-out: Activity
NCI-H522 = experiment: Growth inhibition of human NCI-H522 cells assessed as cell growth at 100 uM incubated for 48 hrs by sulforhodamine B assay relative to control; format: functional; conditions: NCI-H522, 48 h, read-out: Activity
SNB-19 = experiment: Growth inhibition of human SNB19 cells assessed as cell growth at 100 uM incubated for 48 hrs by sulforhodamine B assay relative to control; format: functional; conditions: SNB-19, 48 h, read-out: Activity
U-251 = experiment: Growth inhibition of human U251 cells assessed as cell growth at 100 uM incubated for 48 hrs by sulforhodamine B assay relative to control; format: functional; conditions: U-251, 48 h, read-out: Activity
M14 = experiment: Growth inhibition of human M14 cells assessed as cell growth at 100 uM incubated for 48 hrs by sulforhodamine B assay relative to control; format: functional; conditions: M14, 48 h, read-out: Activity
IGROV-1 = experiment: Growth inhibition of human IGROV1 cells assessed as cell growth at 100 uM incubated for 48 hrs by sulforhodamine B assay relative to control; format: functional; conditions: IGROV-1, 48 h, read-out: Activity
TK-10 [12] = experiment: Growth inhibition of human TK10 cells assessed as cell growth at 100 uM incubated for 48 hrs by sulforhodamine B assay relative to control; format: functional; conditions: TK-10, 48 h, read-out: Activity
MCF7 = experiment: Growth inhibition of human MCF7 cells assessed as cell growth at 100 uM incubated for 48 hrs by sulforhodamine B assay relative to control; format: functional; conditions: MCF7, 48 h, read-out: Activity
MDA-MB-231 = experiment: Growth inhibition of human MDA-MB-231 cells assessed as cell growth at 100 uM incubated for 48 hrs by sulforhodamine B assay relative to control; format: functional; conditions: MDA-MB-231, 48 h, read-out: Activity

Chain of Vascular endothelial growth factor receptor 2 (Homo sapiens) (P35968 whole entry): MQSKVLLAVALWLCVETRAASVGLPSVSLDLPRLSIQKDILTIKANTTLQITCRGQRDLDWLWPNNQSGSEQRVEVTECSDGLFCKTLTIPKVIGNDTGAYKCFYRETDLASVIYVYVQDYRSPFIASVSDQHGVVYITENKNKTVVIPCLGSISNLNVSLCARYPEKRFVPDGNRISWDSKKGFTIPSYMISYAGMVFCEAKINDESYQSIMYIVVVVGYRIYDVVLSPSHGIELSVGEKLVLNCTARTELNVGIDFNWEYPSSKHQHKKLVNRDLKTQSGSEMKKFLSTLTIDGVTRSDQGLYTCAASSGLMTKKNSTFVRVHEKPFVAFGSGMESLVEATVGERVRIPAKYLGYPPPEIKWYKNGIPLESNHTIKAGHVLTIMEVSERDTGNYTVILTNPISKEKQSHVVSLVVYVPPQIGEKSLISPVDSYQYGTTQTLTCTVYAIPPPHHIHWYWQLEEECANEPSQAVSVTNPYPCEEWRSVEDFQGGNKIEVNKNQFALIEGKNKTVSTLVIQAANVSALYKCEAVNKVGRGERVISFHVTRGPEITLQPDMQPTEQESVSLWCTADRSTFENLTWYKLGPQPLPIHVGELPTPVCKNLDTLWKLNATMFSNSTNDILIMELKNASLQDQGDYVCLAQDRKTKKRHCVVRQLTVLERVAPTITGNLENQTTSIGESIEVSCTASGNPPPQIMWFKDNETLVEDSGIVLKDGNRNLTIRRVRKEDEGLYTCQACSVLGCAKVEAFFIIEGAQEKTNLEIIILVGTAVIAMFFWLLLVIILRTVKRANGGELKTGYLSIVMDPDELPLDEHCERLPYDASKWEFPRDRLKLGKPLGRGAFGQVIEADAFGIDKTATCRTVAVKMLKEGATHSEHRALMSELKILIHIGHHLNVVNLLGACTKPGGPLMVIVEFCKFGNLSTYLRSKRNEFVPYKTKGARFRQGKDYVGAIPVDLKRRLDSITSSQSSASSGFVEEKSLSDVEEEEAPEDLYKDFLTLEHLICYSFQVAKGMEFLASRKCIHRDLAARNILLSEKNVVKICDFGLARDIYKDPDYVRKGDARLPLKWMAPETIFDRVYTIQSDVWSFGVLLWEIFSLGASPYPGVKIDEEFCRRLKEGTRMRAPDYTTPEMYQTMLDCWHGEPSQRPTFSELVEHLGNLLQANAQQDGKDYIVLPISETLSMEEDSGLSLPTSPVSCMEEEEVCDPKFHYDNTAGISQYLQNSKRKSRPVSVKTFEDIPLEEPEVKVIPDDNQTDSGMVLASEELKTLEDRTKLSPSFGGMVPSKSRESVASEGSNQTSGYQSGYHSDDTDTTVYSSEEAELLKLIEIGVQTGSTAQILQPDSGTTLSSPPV
Chain of Dual specificity mitogen-activated protein kinase kinase 1 (Homo sapiens) (Q02750 whole entry): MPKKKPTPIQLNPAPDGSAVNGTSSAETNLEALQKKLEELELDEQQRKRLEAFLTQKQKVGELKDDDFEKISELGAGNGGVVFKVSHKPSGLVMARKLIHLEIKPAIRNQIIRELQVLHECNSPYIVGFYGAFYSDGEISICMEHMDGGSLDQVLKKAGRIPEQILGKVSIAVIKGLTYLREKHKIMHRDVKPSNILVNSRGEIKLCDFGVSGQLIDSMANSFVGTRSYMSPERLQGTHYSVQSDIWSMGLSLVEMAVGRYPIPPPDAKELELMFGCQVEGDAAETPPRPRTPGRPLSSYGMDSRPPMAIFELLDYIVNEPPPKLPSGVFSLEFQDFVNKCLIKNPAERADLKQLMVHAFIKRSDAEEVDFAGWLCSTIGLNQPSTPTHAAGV
Chain of RAC-alpha serine/threonine-protein kinase (Homo sapiens) (P31749 whole entry): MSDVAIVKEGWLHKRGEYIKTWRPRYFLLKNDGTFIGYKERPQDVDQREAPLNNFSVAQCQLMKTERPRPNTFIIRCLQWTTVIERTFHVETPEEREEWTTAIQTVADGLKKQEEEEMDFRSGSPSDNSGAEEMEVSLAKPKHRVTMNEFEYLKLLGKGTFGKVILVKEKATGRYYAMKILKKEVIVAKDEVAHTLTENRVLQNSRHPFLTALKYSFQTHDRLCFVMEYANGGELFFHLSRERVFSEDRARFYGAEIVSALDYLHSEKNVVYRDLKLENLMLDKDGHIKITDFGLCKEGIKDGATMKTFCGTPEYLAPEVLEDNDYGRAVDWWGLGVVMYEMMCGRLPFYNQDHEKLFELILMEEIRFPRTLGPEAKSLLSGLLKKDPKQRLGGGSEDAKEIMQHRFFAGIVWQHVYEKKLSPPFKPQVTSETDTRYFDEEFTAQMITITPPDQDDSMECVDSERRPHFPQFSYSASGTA
Chain of Serine/threonine-protein kinase B-raf (Homo sapiens), P15056 [V600E] (P15056 whole entry V600E): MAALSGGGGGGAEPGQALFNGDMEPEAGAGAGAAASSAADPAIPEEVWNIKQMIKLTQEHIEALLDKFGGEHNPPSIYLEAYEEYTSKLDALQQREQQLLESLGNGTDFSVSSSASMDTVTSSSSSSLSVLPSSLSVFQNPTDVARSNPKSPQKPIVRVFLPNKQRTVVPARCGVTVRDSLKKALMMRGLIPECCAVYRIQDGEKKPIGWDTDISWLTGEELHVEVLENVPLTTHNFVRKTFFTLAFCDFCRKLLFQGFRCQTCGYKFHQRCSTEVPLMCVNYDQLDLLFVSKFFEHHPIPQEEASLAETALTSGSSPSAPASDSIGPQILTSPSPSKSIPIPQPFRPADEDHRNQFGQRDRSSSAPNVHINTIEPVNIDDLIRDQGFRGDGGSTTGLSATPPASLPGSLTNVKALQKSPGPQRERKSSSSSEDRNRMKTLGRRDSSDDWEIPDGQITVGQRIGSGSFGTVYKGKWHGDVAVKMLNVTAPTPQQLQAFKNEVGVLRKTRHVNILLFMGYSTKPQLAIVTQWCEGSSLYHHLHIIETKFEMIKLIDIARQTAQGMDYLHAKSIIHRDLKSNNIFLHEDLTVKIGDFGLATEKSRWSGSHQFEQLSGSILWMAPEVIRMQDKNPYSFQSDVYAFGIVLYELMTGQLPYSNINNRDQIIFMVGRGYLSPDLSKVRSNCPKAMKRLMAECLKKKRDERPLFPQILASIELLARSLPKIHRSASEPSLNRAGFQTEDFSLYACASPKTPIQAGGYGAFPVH
Chain of Mitogen-activated protein kinase 8 (Homo sapiens) (P45983 whole entry): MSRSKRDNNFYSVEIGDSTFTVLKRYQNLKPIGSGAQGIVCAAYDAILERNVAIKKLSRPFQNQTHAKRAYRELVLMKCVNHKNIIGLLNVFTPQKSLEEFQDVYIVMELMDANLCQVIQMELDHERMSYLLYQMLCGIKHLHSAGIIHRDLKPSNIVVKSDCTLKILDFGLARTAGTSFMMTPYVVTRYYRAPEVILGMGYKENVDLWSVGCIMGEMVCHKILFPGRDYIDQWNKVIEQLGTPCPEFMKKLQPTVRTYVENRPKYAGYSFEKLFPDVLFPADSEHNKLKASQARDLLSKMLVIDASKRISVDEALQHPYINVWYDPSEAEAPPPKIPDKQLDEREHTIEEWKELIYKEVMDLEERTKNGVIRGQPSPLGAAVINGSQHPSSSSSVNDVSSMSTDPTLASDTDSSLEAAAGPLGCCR
Chain of Tyrosine-protein kinase JAK2 (Homo sapiens) (O60674 whole entry): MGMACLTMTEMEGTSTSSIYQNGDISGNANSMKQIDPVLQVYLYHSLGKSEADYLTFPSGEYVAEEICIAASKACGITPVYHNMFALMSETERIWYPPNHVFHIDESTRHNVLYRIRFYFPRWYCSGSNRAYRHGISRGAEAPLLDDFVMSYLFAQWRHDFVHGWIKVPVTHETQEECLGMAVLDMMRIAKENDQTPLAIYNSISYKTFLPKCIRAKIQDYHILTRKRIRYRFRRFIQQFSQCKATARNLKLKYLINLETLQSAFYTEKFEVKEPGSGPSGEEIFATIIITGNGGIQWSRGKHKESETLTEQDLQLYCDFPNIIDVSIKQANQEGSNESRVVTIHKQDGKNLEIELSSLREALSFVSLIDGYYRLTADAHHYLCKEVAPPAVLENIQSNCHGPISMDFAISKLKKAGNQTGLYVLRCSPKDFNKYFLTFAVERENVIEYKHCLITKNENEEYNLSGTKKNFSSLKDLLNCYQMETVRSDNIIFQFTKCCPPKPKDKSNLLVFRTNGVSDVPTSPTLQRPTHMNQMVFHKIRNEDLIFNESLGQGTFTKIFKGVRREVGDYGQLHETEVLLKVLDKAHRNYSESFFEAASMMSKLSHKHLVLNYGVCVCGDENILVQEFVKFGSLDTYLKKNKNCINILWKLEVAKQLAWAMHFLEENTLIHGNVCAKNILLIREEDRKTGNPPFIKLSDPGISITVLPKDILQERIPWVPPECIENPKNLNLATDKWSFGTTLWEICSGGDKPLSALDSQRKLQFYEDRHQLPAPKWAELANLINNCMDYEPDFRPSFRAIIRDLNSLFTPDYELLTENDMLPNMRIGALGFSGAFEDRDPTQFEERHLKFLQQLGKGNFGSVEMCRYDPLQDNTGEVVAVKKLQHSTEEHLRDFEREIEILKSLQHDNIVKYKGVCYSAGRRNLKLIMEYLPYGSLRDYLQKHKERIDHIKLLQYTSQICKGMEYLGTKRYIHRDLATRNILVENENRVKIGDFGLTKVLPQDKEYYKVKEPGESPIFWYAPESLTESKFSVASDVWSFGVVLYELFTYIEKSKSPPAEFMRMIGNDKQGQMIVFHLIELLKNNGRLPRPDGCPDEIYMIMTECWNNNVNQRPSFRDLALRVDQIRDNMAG
Chain of Mitogen-activated protein kinase 1 (Homo sapiens) (P28482 whole entry): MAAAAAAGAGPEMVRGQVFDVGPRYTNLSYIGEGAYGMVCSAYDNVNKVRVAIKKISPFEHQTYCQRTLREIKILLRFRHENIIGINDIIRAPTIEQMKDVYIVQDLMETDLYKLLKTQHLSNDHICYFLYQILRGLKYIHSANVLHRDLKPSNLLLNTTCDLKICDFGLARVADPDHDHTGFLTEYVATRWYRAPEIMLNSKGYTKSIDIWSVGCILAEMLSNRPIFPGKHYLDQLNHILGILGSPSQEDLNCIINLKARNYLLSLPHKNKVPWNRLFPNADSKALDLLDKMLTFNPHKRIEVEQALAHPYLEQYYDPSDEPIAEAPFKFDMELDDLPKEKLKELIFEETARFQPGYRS

`COc1cc(Cl)cc(-c2nn(-c3cccc(NC(=O)Nc4cc(C(F)(F)F)cc(C(F)(F)F)c4)c3)cc2-c2ccncc2)c1` showed an IC50 (HCT-15) of 350 nM, a GI50 (HCT-15; read-out: GI50) of 352 nM and a TGI (HCT-15; read-out: TGI) of 2250 nM. The GI50 (HCT-15; read-out: pGI50 (converted)) was 355 nM, the CC50 (HCT-15; read-out: pLC50 (the source's name) (converted)) was 74100 nM and the TGI (HCT-15; read-out: pTGI (converted)) was 2820 nM. For the same molecule, the IC50 (RAW264.7) was over 100000 nM, the inhibition [1] was -5.92% and the inhibition [2] was 5.66%. The inhibition [3] was -8.66%, the inhibition [4] was -2.82% and the inhibition [5] was -2.88%. It also gave an inhibition [6] of 2.27%, an inhibition [7] of -5.83% and an inhibition [8] of -7.99%. For the same molecule, the inhibition [9] was -5.41%, the inhibition [10] was 94.7% and the “fold change (FC)” value (RPMI-8226) was 2.79. For the same molecule, the growth at 0.01 µM (SK-MEL-5) was 100%, the growth at 0.01 µM (CAKI-1) was 97% and the growth at 0.1 µM (SF-268) was 99%. It also gave a growth at 1 µM (K562) of 18%, a growth at 1 µM (HOP-92) of -10% and a growth at 1 µM (SF-539) of 59%. The growth at 1 µM (TK-10 [11]) was 42%, the growth at 1 µM (T47D) was 15% and the growth at 100 µM (NCI-H522) was -69%. The growth at 100 µM (SNB-19) was -42%, the growth at 100 µM (U-251) was -92% and the growth at 100 µM (M14) was -82%. The growth at 100 µM (IGROV-1) was -42%, the growth at 100 µM (TK-10 [12]) was -91% and the growth at 100 µM (MCF7) was -44%. The growth at 100 µM (MDA-MB-231) was -70%.
